Measured values published in patent US20230382926A1, “COMPOUNDS AND USES THEREOF” (The University of The West Indies, priority 2022, published 2023).

Columns and labels:
Assay in all cases: Rescue concentration, modified checkerboard MIC adjuvant assay
Assay type in all cases: cell-based
[1] = tested on: Staphylococcus aureus ATCC BAA-2312; conditions: S. aureus ATCC BAA-2312
Protocol: (§1) Reference microorganisms as well as clinical strains used to evaluate the antimicrobial adjuvant properties of SP-6azaBIM 125 and SP-6azaBIM 136 are listed in Table 3. Clinical strains of bacteria were kindly provided by the Faculty of Medical Sciences, UWI, St. Augustine, Trinidad. All bacterial cultures were cryopreserved in 30% glycerol/Brain Heart Infusion (BHI) at −80° C. Cultures were revived on BHI agar (Oxoid Ltd, England) and maintained at 4° C. until needed.
(§2) Prior to each experiment, cultures were streaked onto clean BHI agar plates and incubated at 35° C. for 24 hours. Colonies of the respective cultures were selected and inoculated in phosphate buffer saline (pH 7.5) to a 0.5 McFarland turbidity standard (equivalent to 10^8 CFU mL^−1). For inhibitory studies the bacterial suspensions were diluted 1:100 in cation-adjusted Mueller Hinton Broth (ca-MHB) (Oxoid Ltd, England). Fastidious bacteria including Streptococcus pneumoniae, Haemophilus infuenzae and Clostridium difficile were maintained on BHI agar with 5% defibrinated sheep blood and diluted in ca-MHB with 5% defibrinated sheep blood.
(§3) Antibiotic powders used in this study were purchased from Sigma Aldrich Ltd. (WI, USA). Antibiotic stock solutions were made at 50 mg mL^−1 according to Andrews (2001) and working solutions were prepared 24 h before use and stored at 4° C.
(§4) HCl salts of the of the SP-azaBIM test compounds were prepared prior to testing and stored at 4° C. Working preparations of each compound were made to 1 mg/mL in sterile deionised water.
(§5) The antibiotic adjuvant activity of the SPazaBIMs were evaluated in combination with representative antibiotics (representing 13 antibiotic classes) against the 19 pathogens strains listed in Table 3. To assess the adjuvant properties of the SP-azaBIM molecules, a modified checkerboard minimum inhibitory concentration assay was used. A fixed concentration of the respective antibiotic (susceptible breakpoint concentration) was mixed with a twofold dilution series of the test SP-azaBIM (FIG. 1). This was to determine the concentration of SP-azaBIM needed potentiate the antibiotic at a clinically susceptible breakpoint concentration. Antibiotic susceptible breakpoint concentrations for the respective bacteria were determined using Clinical Laboratory Standards Institute (CLSI) criteria M100 ED31.
(§6) In this study, only those antibiotics to which the bacterial was classed as resistant were included in the adjuvant assays. In this assay we recorded the rescue concentration of the SP-BIM for a respective antibiotic. The rescue concentration was defined as the concentration of the adjuvant that reduces the minimum inhibitory concentration (MIC) of an antibiotic to the susceptibility breakpoint.
(§7) Immediately prior to testing, the respective antibiotic and SP-azaBIM was dissolved in sterile deionised water at 20× the required test concentration. Each microtiter well was then inoculated with 180 μl of bacterial inoculum of 10^6 CFU/ml in ca-MHB, and 10 μl each if the antibiotic and SP-azaBIM was added to the plates. These plates were then incubated at 35° C. for 24 h under aerobic conditions. A similar method was followed for the fastidious pathogens except that they were cultured in ca-MHB with 5% sheep blood and 5% CO2.
(§8) Bacterial growth was visually inspected after the incubation period and the rescue concentration of the test SP-azaBIM was determined as the lowest concentration of the compound needed to reduce bacterial growth by 99.99% at the susceptible breakpoint concentration of the antibiotic. For example, CLSI states that Pseudomonas aeruginosa is susceptible to the Imipenem if the MIC is ≤2 μg mL^−1. If the bacteria can tolerate this concentration in vitro, then the bacteria has an intermediate or absolute resistance toward that antibiotic. […]

[2] = tested on: Klebsiella pneumoniae ATCC BAA-2814; conditions: K. pneumoniae ATCC BAA-2814
Protocol: as §1, §2, §3, §4, §5, §6, §7, §8

[3] = tested on: Enterococcus faecalis ATCC 51299; conditions: E. faecalis ATCC 51299
Protocol: as §1, §2, §3, §4, §5, §6, §7, §8

[4] = tested on: Stenotrophomonas maltophilia MDR 7785; conditions: S. maltophilia MDR 7785
Protocol: as §1, §2, §3, §4, §5, §6, §7, §8

[5] = tested on: Acinetobacter baumannii clinical isolate 9978; conditions: A. baumannii clinical isolate 9978
Protocol: as §1, §2, §3, §4, §5, §6, §7, §8

[6] = tested on: Escherichia coli ATCC 35150; conditions: E. coli ATCC 35150
Protocol: as §1, §2, §3, §4, §5, §6, §7, §8

[7] = tested on: Klebsiella pneumoniae ATCC 49472; conditions: K. pneumoniae ATCC 49472
Protocol: as §1, §2, §3, §4, §5, §6, §7, §8

[8] = tested on: Streptococcus pneumoniae ATCC 49619; conditions: S. pneumoniae ATCC 49619
Protocol: as §1, §2, §3, §4, §5, §6, §7, §8

[9] = Gen at susceptible breakpoint 4 μg mL^−1
[10] = Tri at susceptible breakpoint 8 μg mL^−1
[11] = Amox at susceptible breakpoint 8 μg mL^−1
[12] = Amp at susceptible breakpoint 8 μg mL^−1
[13] = Ceph at susceptible breakpoint 8 μg mL^−1
[14] = Chl at susceptible breakpoint 8 μg mL^−1
[15] = Col at susceptible breakpoint 8 μg mL^−1
[16] = Dox at susceptible breakpoint 4 μg mL^−1
[17] = Imi at susceptible breakpoint 1 μg mL^−1
[18] = Cef at susceptible breakpoint 8 μg mL^−1
[19] = Imi at susceptible breakpoint 2 μg mL^−1
[20] = Mero at susceptible breakpoint 2 μg mL^−1

Which “Rescue concentration, Azi (2)” value ([1]; Azi at susceptible breakpoint 2 μg mL^−1) does the source give for Brc1ccc(C(c2c[nH]c3cnccc23)c2c[nH]c3cnccc23)cc1 [SP-6azaBIM 125, 3,3′-((4-bromophenyl)methylene)bis(1H-pyrrolo[2,3-c]pyridine)] here?
The value was >128 µg/mL.

What about the “Rescue concentration, Gen (4)” value [1, 9] of the same molecule?
Its value is 64 µg/mL.

What about the “Rescue concentration, Pen (0.12)” value ([1]; Pen at susceptible breakpoint 0.12 μg mL^−1) of the same molecule?
Its value is >128 µg/mL.

And the “Rescue concentration, Tri (8)” value [1, 10]?
Its value is >128 µg/mL.

What about the “Rescue concentration, Van (2)” value ([1]; Van at susceptible breakpoint 2 μg mL^−1) of the same molecule?
Its value is >128 µg/mL.

What about the “Rescue concentration, Amox (8)” value [2, 11] of the same molecule?
The value was 4 µg/mL.

What about the “Rescue concentration, Amp (8)” value [2, 12] of the same molecule?
The value was 16 µg/mL.

And the “Rescue concentration, Aze (4)” value ([2]; Aze at susceptible breakpoint 4 μg mL^−1)?
Its value is 4 µg/mL.

What about the “Rescue concentration, Azi (16)” value ([2]; Azi at susceptible breakpoint 16 μg mL^−1) of the same molecule?
The value was 32 µg/mL.

What about the “Rescue concentration, Cef (16)” value ([2]; Cef at susceptible breakpoint 16 μg mL^−1) of the same molecule?
Its value is 16 µg/mL.

What about the “Rescue concentration, Ceph (8)” value [2, 13] of the same molecule?
Its value is 32 µg/mL.

What about the “Rescue concentration, Chl (8)” value [2, 14] of the same molecule?
Its value is 32 µg/mL.

What about the “Rescue concentration, Col (8)” value [2, 15] of the same molecule?
Its value is 4 µg/mL.

And the “Rescue concentration, Dox (4)” value [2, 16]?
The value was 8 µg/mL.

And the “Rescue concentration, Gen (4)” value [2, 9]?
The value was 16 µg/mL.

What about the “Rescue concentration, Imi (1)” value [2, 17] of the same molecule?
The value was 2 µg/mL.

What about the “Rescue concentration, Tet (4)” value ([2]; Tet at susceptible breakpoint 4 μg mL^−1) of the same molecule?
The value was 32 µg/mL.

And the “Rescue concentration, Amp (8)” value [3, 12]?
The value was >128 µg/mL.

And the “Rescue concentration, Chl (8)” value [3, 14]?
Its value is >128 µg/mL.

What about the “Rescue concentration, Dox (4)” value [3, 16] of the same molecule?
Its value is >128 µg/mL.

And the “Rescue concentration, Ery (0.5)” value ([3]; Ery at susceptible breakpoint 0.5 μg mL^−1)?
The value was >128 µg/mL.

And the “Rescue concentration, Tri (8)” value [3, 10]?
Its value is >128 µg/mL.

And the “Rescue concentration, Van (4)” value ([3]; Van at susceptible breakpoint 4 μg mL^−1)?
Its value is >128 µg/mL.

And the “Rescue concentration, Cef (8)” value [4, 18]?
Its value is 8 µg/mL.

And the “Rescue concentration, Ceph (8)” value [4, 13]?
Its value is 8 µg/mL.

What about the “Rescue concentration, Chl (8)” value [4, 14] of the same molecule?
The value was 4 µg/mL.

And the “Rescue concentration, Cip (2)” value ([4]; Cip at susceptible breakpoint 2 μg mL^−1)?
The value was 2 µg/mL.

What about the “Rescue concentration, Gen (4)” value [4, 9] of the same molecule?
Its value is 8 µg/mL.

What about the “Rescue concentration, Imi (2)” value [4, 19] of the same molecule?
The value was 16 µg/mL.

And the “Rescue concentration, Mero (2)” value [4, 20]?
Its value is 4 µg/mL.

And the “Rescue concentration, Tri (2)” value ([4]; Tri at susceptible breakpoint 2 μg mL^−1)?
The value was 64 µg/mL.

And the “Rescue concentration, Amox (8)” value [5, 11]?
Its value is 16 µg/mL.

What about the “Rescue concentration, Cef (8)” value [5, 18] of the same molecule?
Its value is 2 µg/mL.

What about the “Rescue concentration, Col (2)” value ([5]; Col at susceptible breakpoint 2 μg mL^−1) of the same molecule?
The value was 4 µg/mL.

What about the “Rescue concentration, Gen (4)” value [5, 9] of the same molecule?
The value was 2 µg/mL.

And the “Rescue concentration, Imi (2)” value [5, 19]?
The value was 4 µg/mL.

What about the “Rescue concentration, Mero (2)” value [5, 20] of the same molecule?
Its value is 8 µg/mL.

And the “Rescue concentration, Pol B (2)” value ([5]; Pol B at susceptible breakpoint 2 μg mL^−1)?
Its value is 16 µg/mL.

What about the “Rescue concentration, Cip (0.25)” value ([6]; Cip at susceptible breakpoint 0.25 μg mL^−1) of the same molecule?
The value was 8 µg/mL.

And the “Rescue concentration, Col (8)” value [6, 15]?
The value was 2 µg/mL.

What about the “Rescue concentration, Dox (4)” value [6, 16] of the same molecule?
Its value is 32 µg/mL.

What about the “Rescue concentration, Imi (1)” value [6, 17] of the same molecule?
Its value is 4 µg/mL.

And the “Rescue concentration, Amox (8)” value [7, 11]?
The value was 4 µg/mL.

And the “Rescue concentration, Amp (8)” value [7, 12]?
Its value is 16 µg/mL.

What about the “Rescue concentration, Col (8)” value [7, 15] of the same molecule?
Its value is 4 µg/mL.

And the “Rescue concentration, Imi (1)” value [7, 17]?
Its value is 2 µg/mL.

What about the “Rescue concentration, Mero (1)” value ([7]; Mero at susceptible breakpoint 1 μg mL^−1) of the same molecule?
The value was 4 µg/mL.

What about the “Rescue concentration, Pol B (8)” value ([7]; Pol B at susceptible breakpoint 8 μg mL^−1) of the same molecule?
The value was 4 µg/mL.

And the “Rescue concentration, Amox (2)” value ([8]; Amox at susceptible breakpoint 2 μg mL^−1)?
The value was >128 µg/mL.

And the “Rescue concentration, Ery (0.25)” value ([8]; Ery at susceptible breakpoint 0.25 μg mL^−1)?
Its value is >128 µg/mL.

And the “Rescue concentration, Imi (0.12)” value ([8]; Imi at susceptible breakpoint 0.12 μg mL^−1)?
The value was >128 µg/mL.
